Measurements reported in US11702404B2, “GLP-1R modulating compounds” (priority 2019, dated 2023).
Like-named read-outs stand apart in the source and are kept apart here.

Key:
GLP-1R = GLP-1R (Homo sapiens, UniProt P43220); experiment: GLP-1R activation: cAMP increase in CHO cells stably expressing GLP-1R; format: cell-based; conditions: read-out: EC50
[1] = Microsomal stability, human liver microsomes (predicted hepatic clearance); conditions: predicted from in vitro microsomal stability data
[2] = cAMP increase, CHO cells stably expressing GLP-1R, 10 point dose response, 30 minutes incubation

Chain of GLP-1R (P43220 24-463): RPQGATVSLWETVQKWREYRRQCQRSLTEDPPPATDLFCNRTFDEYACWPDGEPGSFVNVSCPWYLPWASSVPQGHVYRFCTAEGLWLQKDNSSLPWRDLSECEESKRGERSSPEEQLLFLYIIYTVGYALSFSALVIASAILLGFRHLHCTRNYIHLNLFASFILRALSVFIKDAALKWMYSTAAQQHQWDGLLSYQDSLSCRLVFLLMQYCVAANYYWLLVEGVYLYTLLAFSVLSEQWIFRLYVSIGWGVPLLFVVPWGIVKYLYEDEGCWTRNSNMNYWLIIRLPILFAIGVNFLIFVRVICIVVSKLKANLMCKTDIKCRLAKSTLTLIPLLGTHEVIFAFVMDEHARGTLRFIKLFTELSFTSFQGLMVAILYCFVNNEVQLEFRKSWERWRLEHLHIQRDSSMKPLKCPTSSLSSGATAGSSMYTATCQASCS

| SMILES | EC50 (GLP-1R) [nM] | Predicted Hepatic Clearance (Pred. Cl.) [1] [mL/min/kg] | EC50 (GLP-1R; [2]) [nM] |
| --- | --- | --- | --- |
| CC(=O)N1CC[C@@H]1Cn1c(Cc2ccc(-c3cccc(OCc4ccc(C#N)cc4F)n3)cc2F)nc2ccc(C(=O)O)cc21 [Example 483, (R)-1-((1-acetylazetidin-2-yl)methyl)-2-(4-(6-((4-cyano-2-fluorobenzyl)oxy)pyridin-2-yl)-2-fluorobenzyl)-1H-benzo[d]imidazole-6-carboxylic acid] | 3.94 | 2.5 |  |
| CC1(Cn2c(Cc3ccc(-c4cccc(OCc5ccc(C#N)cc5F)n4)cc3F)nc3ccc(C(=O)O)cc32)CCC1 [Example 384, 2-(4-(6-((4-cyano-2-fluorobenzyl)oxy)pyridin-2-yl)-2-fluorobenzyl)-1-((1-methylcyclobutyl)methyl)-1H-benzo[d]imidazole-6-carboxylic acid] |  | <1.83 | 1.45 |
| N#CCC1(Cn2c(Cc3c(F)cc(-c4ccnc(OCc5ccc(C#N)cc5F)n4)cc3F)nc3ccc(C(=O)O)cc32)CC1 [Example 399, 2-(4-(2-((4-cyano-2-fluorobenzyl)oxy)pyrimidin-4-yl)-2,6-difluorobenzyl)-1-((1-(cyanomethyl)cyclopropyl)methyl)-1H-benzo[d]imidazole-6-carboxylic acid] |  | 3.3 | 2.81 |
| CC(=O)N1CCC[C@H]1Cn1c(Cc2ccc(-c3cccc(OCc4ccc(C#N)cc4F)n3)cc2F)nc2ccc(C(=O)O)cc21 [Example 453, (S)-1-((1-acetylpyrrolidin-2-yl)methyl)-2-(4-(6-((4-cyano-2-fluorobenzyl)oxy)pyridin-2-yl)-2-fluorobenzyl)-1H-benzo[d]imidazole-6-carboxylic acid] | 40.3 | 3.83 |  |
| COCCn1c(Cc2ccc(-c3cccc(NCc4ccc(C#N)cc4F)n3)cc2F)nc2ccc(C(=O)O)cc21 [Example 170, 2-(4-(6-((4-cyano-2-fluorobenzyl)amino)pyridin-2-yl)-2-fluorobenzyl)-1-(2-methoxyethyl)-1H-benzo[d]imidazole-carboxylic acid] |  | 6.33 | 509 |
| O=C(O)c1ccc2nc(Cc3c(F)cc(-c4cccc(OCc5ccc(C(F)F)cc5F)n4)c(F)c3F)n(CC34CC(CO3)C4)c2c1 [Example 756] |  | 7.67 | 1.42 |
| COCCOCCn1c(Cc2ccc(-c3cccc(OCc4ccc(C#N)cc4F)n3)cc2F)nc2ccc(C(=O)O)cc21 [Example 230, 2-(4-(6-((4-cyano-2-fluorobenzyl)oxy)pyridin-2-yl)-2-fluorobenzyl)-1-(2-(2-methoxyethoxy)ethyl)-1H-benzo[d]imidazole-6-carboxylic acid] |  | 12 | 27.4 |
| N#Cc1ccc(COc2cccc(-c3ccc(Cc4nc5ccc(C(=O)O)cc5n4CC4(C(F)F)CCC4)c(F)c3)n2)c(F)c1 [Example 385, 2-(4-(6-((4-cyano-2-fluorobenzyl)oxy)pyridin-2-yl)-2-fluorobenzyl)-1-((1-(difluoromethyl)cyclobutyl)methyl)-1H-benzo[d]imidazole-6-carboxylic acid] |  | 5.33 | 1.34 |
| CO[C@@H]1CCCC[C@@H]1n1c(Cc2cc(F)c(-c3cccc(OCc4ccc(C#N)cc4F)n3)cc2F)nc2ccc(C(=O)O)cc21 [Example 725] |  | 9.5 | 3.68 |
| COCCn1c(Cc2cc(F)c(-c3nc(OCc4ccc(C#N)cc4F)ccc3F)cc2F)nc2c(F)cc(C(=O)O)cc21 [Example 791] |  | 4.83 | 2.75 |
| CC(=O)N1CCC[C@H](Cn2c(Cc3ccc(-c4cccc(OCc5ccc(C#N)cc5F)n4)cc3F)nc3ccc(C(=O)O)cc32)C1 [Example 488, (R)-1-((1-acetylpiperidin-3-yl)methyl)-2-(4-(6-((4-cyano-2-fluorobenzyl)oxy)pyridin-2-yl)-2-fluorobenzyl)-1H-benzo[d]imidazole-6-carboxylic acid] |  | 10 | 1090 |
| CCOc1cc(C#N)ccc1COc1cccc(-c2ccc(Cc3nc4ccc(C(=O)O)cc4n3CCOC)c(F)c2)n1 [Example 238, 2-(4-(6-((4-cyano-2-ethoxybenzyl)oxy)pyridin-2-yl)-2-fluorobenzyl)-1-(2-methoxyethyl)-1H-benzo[d]imidazole-6-carboxylic acid] |  | 8.67 | 12 |
| O=C(O)c1cc(F)c2nc(Cc3ccc(-c4ccc(F)c(OCc5ccc(C(F)F)cc5F)n4)cc3F)n(CC34CC(CO3)C4)c2c1 [Example 770] |  | 1.83 | 2.62 |
| COCCn1c(Cc2ccc(-c3cccc(OCc4ccc(C#N)cc4F)n3)cc2N)nc2ccc(C(=O)O)cc21 [Example 64, 2-(2-amino-4-(6-((4-cyano-2-fluorobenzyl)oxy)pyridin-2-yl)benzyl)-1-(2-methoxyethyl)-1H-benzo[d]imidazole-6-carboxylic acid] |  | 3.5 | 67 |
| N#Cc1ccc(COc2cccc(-c3ccc(Cc4nc5ccc(C(=O)O)cc5n4CC4(n5cncn5)CC4)c(F)c3)n2)c(F)c1 [Example 313, 1-((1-(1H-1,2,4-triazol-1-yl)cyclopropyl)methyl)-2-(4-(6-((4-cyano-2-fluorobenzyl)oxy)pyridin-2-yl)-2-fluorobenzyl)-1H-benzo[d]imidazole-6-carboxylic acid] |  | 7.17 | 3.25 |
| N#CCC1(Cn2c(Cc3ccc(-c4ccnc(OCc5ccc(C#N)cc5F)n4)cc3F)nc3c(F)cc(C(=O)O)cc32)CC1 [Example 168, 2-(4-(2-((4-cyano-2-fluorobenzyl)oxy)pyrimidin-4-yl)-2-fluorobenzyl)-1-((1-(cyanomethyl)cyclopropyl)methyl)-4-fluoro-1H-benzo[d]imidazole-6-carboxylic acid] |  | <1.83 | 1.06 |
| CN1CCO[C@@H](Cn2c(Cc3cc(F)c(-c4cccc(OCc5ccc(C#N)cc5F)n4)cc3F)nc3ccc(C(=O)O)cc32)C1 [Example 651] |  | 3.33 | 2790 |
| N#Cc1ccc(COc2cccc(-c3ccc(Cc4nc5ccc(C(=O)O)cc5n4Cc4cocn4)c(F)c3)n2)c(F)c1 [Example 407, 2-(4-(6-((4-cyano-2-fluorobenzyl)oxy)pyridin-2-yl)-2-fluorobenzyl)-1-(oxazol-4-ylmethyl)-1H-benzo[d]imidazole-6-carboxylic acid] |  | 3.75 | 4.69 |
| COCCn1c(Cc2ccc(-c3cccc(OCc4ccc(C(F)(F)F)nc4OC)n3)cc2F)nc2ccc(C(=O)O)cc21 [Example 458, 2-[[2-fluoro-4-[6-[[2-methoxy-6-(trifluoromethyl)-3-pyridyl]methoxy]-2-pyridyl]phenyl]methyl]-3-(2-methoxyethyl)benzimidazole-5-carboxylic acid] |  | <1.83 | 2.78 |
| COCCn1c(Cc2ccc(-c3ccc(F)c(OCc4ccc(Cl)cc4F)c3)cc2F)nc2ccc(C(=O)O)cc21 [Example 472, 2-((3′-((4-chloro-2-fluorobenzyl)oxy)-3,4′-difluoro-[1,1′-biphenyl]-4-yl)methyl)-1-(2-methoxyethyl)-1H-benzo[d]imidazole-6-carboxylic acid] |  | <1.83 | 20.9 |
